# Measured values from EP3858342A1, “ACYLHYDRAZONES FOR THE TREATMENT OF NEUROLOGICAL DISEASES” (Consejo Superior de Investigaciones Científicas (CSIC), priority 2018, dated 2020).
# Entries after “also recorded” stand apart in the source; their conditions may differ. Where two headings read alike, the source gives them in different places.
# Assays:
# [1] = target: T1, NCS-1/Ric8a interaction (Homo sapiens, UniProt P62166); assay: Co-immunoprecipitation assay of NCS-1/Ric8a interaction in transfected HEK293 cells; type: cell-based; settings: for NCS-1/Ric8a interaction: HEK293 cells transfected with human Ric8a (V5 tag) and NCS1, IP with anti-NCS1, Western blot with anti-V5, DMSO lane = baseline; for modulatory activity: stated as the reason for modelling the compounds in Drosophila Frq2, underlying test not specified
# T1 construct: expressed in transfected cells; host or cells: HEK293
# Protocol: To identify compounds useful as modulators of the protein complex formed by NCS-1 and Ric8 (specifically as compounds useful for promoting NCS-1/Ric8a interaction), the experiment shown in Figure 1 was carried out. […] The DMSO lane represents baseline levels of NCS1/Ric8a interaction. IP was performed with anti-NCS1 antibodies, followed by the immunodetection of Ric8a in Western blot with the anti-V5 antibody.
# (§1) • Figure 1. […] The DMSO lane represents […]. • Figure 2. […] The curves were fitted considering a stoichiometry of 1:1. For correct curve comparison, intensities were normalized and depicted as (I0 - I)/I0. X. The value of r^2 is 0.998. • Figure 3. […] The residues in which sequence differences are found are shown in pink. • Figure 4. These three figures show the pharmacophore group taking the compound A3H3 as an example. Specifically, groups A1, A2, and N6 (N) refer to the heteroatoms forming the central part of acylhydrazone commonly found in all the assayed compounds, in other words, the carbonyl (A1) bound to the N of amide (N6), which is in turn bound to another imine N (A2). The terms R7 (R) and R8 (R') refer to the aromatic rings which act as substituents. Both the carbonyl-bound R and the imine N-bound R are aromatic • Figure 5. […] Evaluation of the efficacy of compound A3H3 in a model for Huntington's disease. Wild-type mice WT and transgenic mice (HD) expressing exon 1 of human huntingtin (strain R6/1) were treated orally with compound A3H3 at a dose of 25 mg/kg. The treatment started at 3 months of age and lasted for 6 weeks. As a measurement of motor coordination, stride length (A) and the stay time on Rotarod (B) were analyzed.
# In order to evaluate the capacity of the compounds of the invention, A3H3, A5H2, and A3H4, for modulating interaction between human NCS-1 and Ric8as, HEK293 cells were transfected with a version of epitope V5-labeled Ric8a (Ric8a-V5) and NCS-1, performing cell incubation and then cell lysis with the product to be assayed. The amount of NCS-1-bound Ric8a-V5 was then assessed by means of the immunoprecipitation technique.
# [2] = target: T2, dNCS-1 (Drosophila melanogaster, UniProt Q9VWX8); assay: Affinity for dNCS-1 by fluorescence spectroscopy; type: binding; settings: for affinity in the fluorescence technique: additional fluorescence studies, result in words
# T2 sequence (Q9VWX8 1-187): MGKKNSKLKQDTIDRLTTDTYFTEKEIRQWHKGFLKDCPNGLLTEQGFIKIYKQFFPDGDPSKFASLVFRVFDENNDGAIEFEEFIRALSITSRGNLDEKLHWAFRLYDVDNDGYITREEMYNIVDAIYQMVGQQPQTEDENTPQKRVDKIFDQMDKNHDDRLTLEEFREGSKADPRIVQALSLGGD
# Description: The protein complex formed by NCS-1 and Ric8 regulates the number of synapses and neurotransmitter release probability, so it is considered a good therapeutic target for the treatment of diseases in which the synapse is impaired. Based on fluorescence spectroscopy studies, the affinity of compounds for dNCS-1 (neuronal calcium sensor of Drosophila) has been proven. Neuronal calcium sensor NCS-1 is a protein the sequence of which is conserved from yeasts to humans.
# The affinity of the compounds for dNCS-1 was measured by means of the fluorescence spectroscopy technique. The emission intensity of the complex is analyzed, where the signal is monitored at increasing concentrations of ligand (1:0 to 1:30 equivalents), keeping the protein concentration […], 30.8 µM, 1 eq.) constant. The affinity constant is thereby obtained through the apparent disassociation constant. […] The experiments are performed at 5°C with dNCS-1 in 50 mM Tris buffer, pH 7.9, 125 mM NaCl, 0.5 mM CaCl2 with 5% DMSO in a total volume of 300 µL. The experiment is performed at the excitation wavelength of 295 nm and at the emission wavelength of 345 nm (maximum emission) depending on the compound in a Jobin Yvon Floromax4 spectrofluorometer equipped with a Peltier Thermostat; the obtained values are the result of the normalized average of the three repetitions for each measurement. […] The affinity constants found for the tested compounds are as follows: […]
# [3] = test system: flies overexpressing human aβ42arc (D42Gal4> aβ42arc); assay: Number of synapses in a Drosophila melanogaster model for Alzheimer's disease; type: in vivo; settings: flies fed with 100 µM throughout the entire life cycle; adult abdominal motor neurons of 20 days; nc82-positive points, confocal images; vs DMSO
# Protocol: It has been described above that the expression of the human aβ42arc peptide (Arctic mutation) in motor neurons leads to a reduction in the number of synapses with respect to normal neuromuscular junctions in individuals of the same age, therefore, flies overexpressing human aβ42arc (D42Gal4> aβ42arc) were fed with 100 µM compound A3H3 or with the same amount of solvent, DMSO, throughout the entire life cycle. Adult abdominal motor neurons of 20 days were analyzed and the number of synapses (nc82-positive points) was determined in different flies using confocal images.
# [4] = test system: Flies overexpressing aβ42arc (D42Gal4> aβ42arc) in their motor neurons; assay: Locomotor activity in a Drosophila melanogaster model for Alzheimer's disease (Drosophila activity monitors); type: in vivo; settings: D42Gal4> aβ42arc flies fed 100 µM; total number of beam breaks per hour, two consecutive days; vs DMSO
# Protocol: As mentioned, overexpression of the human aβ42arc peptide in the motor neurons of Drosophila melanogaster causes synapse loss and this correlates with a severe locomotor dysfunction. Flies overexpressing aβ42arc (D42Gal4> aβ42arc) in their motor neurons or overexpressing the control (D42Gal4> LacZ) were fed with compound A3H3 at a concentration of 100 µM or with DMSO using the same concentration. Fly locomotor activity was recorded in Drosophila activity monitors (DAM2, Trikinetics) and the total number of beam breaks per hour was analyzed for two consecutive days.
# [5] = test system: transgenic mice (HD) expressing exon 1 of human huntingtin (strain R6/1); assay: Motor coordination in a mouse model for Huntington's disease; type: in vivo; settings: oral, 25 mg/kg, start at 3 months of age, after 6 weeks, significant differences with respect to the rest of groups
# Description: as §1
# [6] = apparent dissociation constant, 5°C, 50 mM Tris buffer pH 7.9, 125 mM NaCl, 0.5 mM CaCl2, 5% DMSO, excitation 295 nm, emission 345 nm, three repetitions, read-out: Kd
# T1 sequence (P62166 2-190 limits assumed): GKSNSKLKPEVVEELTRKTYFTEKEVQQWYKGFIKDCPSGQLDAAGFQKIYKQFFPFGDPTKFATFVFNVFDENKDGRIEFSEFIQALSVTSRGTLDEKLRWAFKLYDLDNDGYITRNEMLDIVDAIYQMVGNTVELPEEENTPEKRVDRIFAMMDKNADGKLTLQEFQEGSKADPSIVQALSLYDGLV
# T1 sequence (Q9NPQ8 whole entry partner): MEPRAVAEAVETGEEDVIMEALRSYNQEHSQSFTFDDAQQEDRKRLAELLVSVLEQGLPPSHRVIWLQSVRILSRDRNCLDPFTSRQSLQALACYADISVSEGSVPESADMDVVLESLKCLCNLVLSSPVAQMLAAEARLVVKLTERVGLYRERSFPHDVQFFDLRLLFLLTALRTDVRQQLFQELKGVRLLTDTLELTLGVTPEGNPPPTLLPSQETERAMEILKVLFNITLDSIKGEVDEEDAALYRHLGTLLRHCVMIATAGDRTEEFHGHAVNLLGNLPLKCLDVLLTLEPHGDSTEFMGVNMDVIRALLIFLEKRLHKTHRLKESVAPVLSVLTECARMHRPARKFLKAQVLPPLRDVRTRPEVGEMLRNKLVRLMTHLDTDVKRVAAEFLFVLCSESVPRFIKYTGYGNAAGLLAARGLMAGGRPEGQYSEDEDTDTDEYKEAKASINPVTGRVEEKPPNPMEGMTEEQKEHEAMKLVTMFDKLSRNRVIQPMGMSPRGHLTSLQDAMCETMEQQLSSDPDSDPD
compound,measurement,setting,value
"COCCC(=O)N/N=C/c1ccc([N+](=O)[O-])c(O)c1 [A3H4, (E)-N'-(3-hydroxy-4-nitrobenzylidene)-3-methoxypropanehydrazide]",NCS-1/Ric8a interaction,[1],allows interaction with Ric8-a
O=C(NN=Cc1ccc2ccccc2c1[N+](=O)[O-])c1cccs1 [A4H8],affinity in the fluorescence technique,[2],without yielding any positive results
"O=C(N/N=C/c1ccc([N+](=O)[O-])c(O)c1)c1ccco1 [A3H2, (E)-N'-(3-hydroxy-4-nitrobenzylidene)furan-2-carbahydrazide]",Kd,[2]; [6],32 ± 2 µM
"O=C(N/N=C/c1cc(F)ccc1[N+](=O)[O-])c1ccco1 [A7H2, (E)-N'-(5-fluoro-2-nitrobenzylidene)furan-2-carbohydrazide]",Kd,[2]; [6],25 ± 4 µM
same,modulatory activity,[1],exhibited modulatory activity
"CC(C)(C)c1ccc(C(=O)N/N=C/c2ccc([N+](=O)[O-])c(O)c2)cc1 [A3H17, (E)-4-(tert-butyl)-N'-(3-hydroxy-4-nitrobenzylidene)benzohydrazide]",NCS-1/Ric8a interaction,[1],promoted NCS-1/Ric8a interaction
"O=C(N/N=C/c1cc([N+](=O)[O-])ccc1F)c1ccco1 [A8H2, (E)-N'-(2-fluoro-5-nitrobenzylidene)furan-2-carbohydrazide]",Kd,[2]; [6],7 ± 1 µM
same,NCS-1/Ric8a interaction,[1],promoted NCS-1/Ric8a interaction
"O=C(NN=Cc1cc(F)ccc1[N+](=O)[O-])c1cccs1 (mixture of isomers) [A7H8, (E/Z)-N'-(5-fluoro-2-nitrobenzylidene)thiophene-2-carbohydrazide]",Kd,[2]; [6],4 ± 1 µM
"O=C(NN=Cc1ccc(Cl)c([N+](=O)[O-])c1)c1cccs1 (mixture of isomers) [A5H8, (E/Z)-N'-(4-chloro-3-nitrobenzylidene)thiophene-2-carbohydrazide]",Kd,[2],19 ± 8 µM
"O=C(N/N=C\c1ccc(Cl)c([N+](=O)[O-])c1)c1ccco1 [A5H2, (Z)-N'-(4-chloro-3-nitrobenzylidene)furan-2-carbohydrazide]",Kd,[2]; [6],3.2 ± 0.3 µM
same,NCS-1/Ric8a interaction,[1],allows interaction with Ric8-a; also recorded: promoted NCS-1/Ric8a interaction
"O=C(N/N=C\c1ccc([N+](=O)[O-])c(O)c1)c1ccc(Cl)s1 [A3H18, (Z)-5-chloro-N'-(3-hydroxy-4-nitrobenzylidene)thiophene-2-carbohydrazide]",NCS-1/Ric8a interaction,[1],promoted NCS-1/Ric8a interaction
O=C(NN=Cc1ccc2ccccc2c1[N+](=O)[O-])C(O)c1ccccc1 (stereo not drawn) [A4H6],affinity in the fluorescence technique,[2],without yielding any positive results
O=C(NN=Cc1ccc(Cl)c([N+](=O)[O-])c1)C(O)c1ccccc1 (stereo not drawn) [A5H6],Kd,[2]; [6],3.2 ± 0.3 µM
same,modulatory activity,[1],exhibited modulatory activity
"O=C(NN=Cc1ccc([N+](=O)[O-])c(O)c1)C(O)c1ccccc1 (racemic) [A3H6, (±)-(E/Z)-2-hydroxy-N'-(3-hydroxy-4-nitrobenzylidene)-2-phenylacetohydrazide]",NCS-1/Ric8a interaction,[1],promoted NCS-1/Ric8a interaction
O=C(Cc1c[nH]c2ccccc12)NN=Cc1ccc2ccccc2c1[N+](=O)[O-] [A4H3],affinity in the fluorescence technique,[2],without yielding any positive results
"O=C(Cc1c[nH]c2ccccc12)NN=Cc1ccc([N+](=O)[O-])c(O)c1 (mixture of isomers) [A3H3, (E/Z)-N'-(3-hydroxy-4-nitrobenzylidene)-2-(1H-indol-3-yl)acetohydrazide]",Kd,[2]; [6],43 ± 6 µM
same,pathological reduction of the synapse count,[3],greatly suppressed
same,locomotor impairment due to overexpression of aβ42arc,[4],thoroughly improved
same,increase of the binding of NCS-1 with Ric8a,"[1]; HEK293 cells transfected with Ric8a-V5 and NCS-1, amount of NCS-1-bound Ric8a-V5 by immunoprecipitation",more than two fold
same,NCS-1/Ric8a interaction,[1],allows interaction with Ric8-a; also recorded: promoted NCS-1/Ric8a interaction
same,modulatory activity,[1],exhibited modulatory activity
same,stay time on Rotarod,[5],the same cannot be said
same,stride length,[5],the same cannot be said
"O=C(NN=Cc1ccc([N+](=O)[O-])c(O)c1)c1cc2ccccc2cc1O (mixture of isomers) [A3H19, (E/Z)-3-hydroxy-N'-(3-hydroxy-4-nitrobenzylidene)-2-naphthohydrazide]",NCS-1/Ric8a interaction,[1],promoted NCS-1/Ric8a interaction
